# Results published in PubChem BioAssay AID1963835 (Molecular Pharmacology Branch, DTP, NCI, 2024).
# Tested on: 699152-130-R-J1-PDC complex spheroid viability
# Experiment: Anticancer human tumor 699152-130-R-J1-PDC patient-derived pancreatic carcinoma cell line growth inhibition [POLQ]
# Details: for IC50: curve of first compound; for viability, T/C: stronger effect = lower value
# Method in brief: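 Patient-derived tumour cells were co-cultured with HUVEC and mesenchymal stem cells as multicellular spheroids at 37 °C. They were treated with POLQ inhibitors (novobiocin, ART-558, RP6685) alone or combined with other agents. Top concentrations were at or near clinical Cmax (otherwise 10 microM; SN-38 at 1 microM), decreasing in half-log steps.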
# [1] = second compound 0.0316 µM, first compound 0.0316 µM
# [2] = second compound 0.0316 µM, first compound 0.1 µM
# [3] = second compound 0.0316 µM, first compound 0.316 µM
# [4] = second compound 0.0316 µM, first compound 1 µM
# [5] = second compound 0.0316 µM, first compound 3.16 µM
# [6] = second compound 0.0316 µM, first compound 10 µM
# [7] = second compound 0.1 µM, first compound 0.0316 µM
# [8] = second compound 0.1 µM, first compound 0.1 µM
# [9] = second compound 0.1 µM, first compound 0.316 µM
# [10] = second compound 0.1 µM, first compound 1 µM
# [11] = second compound 0.1 µM, first compound 3.16 µM
# [12] = second compound 0.1 µM, first compound 10 µM
# [13] = second compound 0.316 µM, first compound 0.0316 µM
# [14] = second compound 0.316 µM, first compound 0.1 µM
# [15] = second compound 0.316 µM, first compound 0.316 µM
# [16] = second compound 0.316 µM, first compound 1 µM
# [17] = second compound 0.316 µM, first compound 3.16 µM
# [18] = second compound 0.316 µM, first compound 10 µM
# [19] = second compound 1 µM, first compound 0.0316 µM
# [20] = second compound 1 µM, first compound 0.1 µM
# [21] = second compound 1 µM, first compound 0.316 µM
# [22] = second compound 1 µM, first compound 1 µM
# [23] = second compound 1 µM, first compound 3.16 µM
# [24] = second compound 1 µM, first compound 10 µM
# [25] = second compound 3.16 µM, first compound 0.0316 µM
# [26] = second compound 3.16 µM, first compound 0.1 µM
# [27] = second compound 3.16 µM, first compound 0.316 µM
# [28] = second compound 3.16 µM, first compound 1 µM
# [29] = second compound 3.16 µM, first compound 3.16 µM
# [30] = second compound 3.16 µM, first compound 10 µM
# [31] = second compound 10 µM, first compound 0.0316 µM
# [32] = second compound 10 µM, first compound 0.1 µM
# [33] = second compound 10 µM, first compound 0.316 µM
# [34] = second compound 10 µM, first compound 1 µM
# [35] = second compound 10 µM, first compound 3.16 µM
# [36] = second compound 10 µM, first compound 10 µM
# 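Further: spheroids exposed to agents for 7 days before viability reading.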
# 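Wherever viability, T/C is given: percent of DMSO vehicle control viability so 100% = vehicle and 0% = no viable signal.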
structure (smiles),measurement,setting,value
CC1COCCN1c1cc(-c2ccnn2C)c2ccnc(-c3ccn[nH]3)c2n1 (stereo not drawn) + Nc1ccc(C#CCN(C(=O)Cc2ncc(C(F)(F)F)cc2C(F)(F)F)c2ccc(F)cc2)nn1,IC50,second compound 0.0316 µM,> 10 µM
same,IC50,second compound 0.1 µM,> 10 µM
same,IC50,second compound 0.316 µM,> 10 µM
same,IC50,second compound 1 µM,6.83 µM
same,IC50,second compound 3.16 µM,> 10 µM
same,IC50,second compound 10 µM,> 10 µM
same,"viability, T/C",[1],88.4%
same,"viability, T/C",[2],91.3%
same,"viability, T/C",[3],80.4%
same,"viability, T/C",[4],63.5%
same,"viability, T/C",[5],52.9%
same,"viability, T/C",[6],50%
same,"viability, T/C",[7],90.9%
same,"viability, T/C",[8],89%
same,"viability, T/C",[9],75.4%
same,"viability, T/C",[10],66.6%
same,"viability, T/C",[11],52.8%
same,"viability, T/C",[12],53.3%
same,"viability, T/C",[13],102%
same,"viability, T/C",[14],90.6%
same,"viability, T/C",[15],75.4%
same,"viability, T/C",[16],58.9%
same,"viability, T/C",[17],48.5%
same,"viability, T/C",[18],53.9%
same,"viability, T/C",[19],101%
same,"viability, T/C",[20],82.8%
same,"viability, T/C",[21],71.4%
same,"viability, T/C",[22],58%
same,"viability, T/C",[23],52.2%
same,"viability, T/C",[24],49.2%
same,"viability, T/C",[25],107%
same,"viability, T/C",[26],92.7%
same,"viability, T/C",[27],75.6%
same,"viability, T/C",[28],55.3%
same,"viability, T/C",[29],47.2%
same,"viability, T/C",[30],57%
same,"viability, T/C",[31],114%
same,"viability, T/C",[32],94.3%
same,"viability, T/C",[33],80.9%
same,"viability, T/C",[34],58%
same,"viability, T/C",[35],64.5%
same,"viability, T/C",[36],49.9%
CC1COCCN1c1cc(-c2ccnn2C)c2ccnc(-c3ccn[nH]3)c2n1 (stereo not drawn) + COC1C(OC(N)=O)C(O)C(Oc2ccc3c(O)c(NC(=O)c4ccc(O)c(CC=C(C)C)c4)c(=O)oc3c2C)OC1(C)C,IC50,second compound 0.0316 µM,> 10 µM
same,IC50,second compound 0.1 µM,> 10 µM
same,IC50,second compound 0.316 µM,8.54 µM
same,IC50,second compound 1 µM,> 10 µM
same,IC50,second compound 3.16 µM,> 10 µM
same,IC50,second compound 10 µM,> 10 µM
same,"viability, T/C",[1],94.7%
same,"viability, T/C",[2],101%
same,"viability, T/C",[3],71.5%
same,"viability, T/C",[4],57.2%
same,"viability, T/C",[5],58.6%
same,"viability, T/C",[6],53.3%
same,"viability, T/C",[7],104%
same,"viability, T/C",[8],97.1%
same,"viability, T/C",[9],71.1%
same,"viability, T/C",[10],57.1%
same,"viability, T/C",[11],57%
same,"viability, T/C",[12],47%
same,"viability, T/C",[13],104%
same,"viability, T/C",[14],99.9%
same,"viability, T/C",[15],66%
same,"viability, T/C",[16],56.4%
same,"viability, T/C",[17],63.1%
same,"viability, T/C",[18],47.5%
same,"viability, T/C",[19],99.2%
same,"viability, T/C",[20],93.3%
same,"viability, T/C",[21],67.3%
same,"viability, T/C",[22],64%
same,"viability, T/C",[23],55.5%
same,"viability, T/C",[24],51.5%
same,"viability, T/C",[25],96.3%
same,"viability, T/C",[26],85.3%
same,"viability, T/C",[27],76.8%
same,"viability, T/C",[28],56.1%
same,"viability, T/C",[29],56.1%
same,"viability, T/C",[30],52.6%
same,"viability, T/C",[31],102%
same,"viability, T/C",[32],80.8%
same,"viability, T/C",[33],65.6%
same,"viability, T/C",[34],56.5%
same,"viability, T/C",[35],58.3%
same,"viability, T/C",[36],50%
COc1ccc([C@@H](O)c2cc(-c3ncnc4cc(N5CCOCC5)ccc34)c(F)cc2Cl)nn1 + COC1C(OC(N)=O)C(O)C(Oc2ccc3c(O)c(NC(=O)c4ccc(O)c(CC=C(C)C)c4)c(=O)oc3c2C)OC1(C)C,IC50,second compound 0.0316 µM,3.83 µM
same,IC50,second compound 0.1 µM,4.13 µM
same,IC50,second compound 0.316 µM,3.83 µM
same,IC50,second compound 1 µM,3.58 µM
same,IC50,second compound 3.16 µM,4.02 µM
same,IC50,second compound 10 µM,4.25 µM
same,"viability, T/C",[1],94.5%
same,"viability, T/C",[2],96.9%
same,"viability, T/C",[3],85.6%
same,"viability, T/C",[4],82.8%
same,"viability, T/C",[5],53.9%
same,"viability, T/C",[6],26.3%
same,"viability, T/C",[7],112%
same,"viability, T/C",[8],87%
same,"viability, T/C",[9],87%
same,"viability, T/C",[10],83%
same,"viability, T/C",[11],56.1%
same,"viability, T/C",[12],27.4%
same,"viability, T/C",[13],113%
same,"viability, T/C",[14],107%
same,"viability, T/C",[15],92.2%
same,"viability, T/C",[16],80.4%
same,"viability, T/C",[17],54.7%
same,"viability, T/C",[18],24%
same,"viability, T/C",[19],118%
same,"viability, T/C",[20],98.1%
same,"viability, T/C",[21],96.9%
same,"viability, T/C",[22],70.1%
same,"viability, T/C",[23],58.5%
same,"viability, T/C",[24],22.6%
same,"viability, T/C",[25],98.3%
same,"viability, T/C",[26],108%
same,"viability, T/C",[27],86.6%
same,"viability, T/C",[28],88.7%
same,"viability, T/C",[29],56.2%
same,"viability, T/C",[30],21.6%
same,"viability, T/C",[31],101%
same,"viability, T/C",[32],90.8%
same,"viability, T/C",[33],90.9%
same,"viability, T/C",[34],71.6%
same,"viability, T/C",[35],60.6%
same,"viability, T/C",[36],27.7%
COc1cccc2c1C(=O)c1c(O)c3c(c(O)c1C2=O)CC(O)(C(=O)CO)CC3OC1CC(N)C(O)C(C)O1 (stereo not drawn) + COC1C(OC(N)=O)C(O)C(Oc2ccc3c(O)c(NC(=O)c4ccc(O)c(CC=C(C)C)c4)c(=O)oc3c2C)OC1(C)C,IC50,second compound 0.0316 µM,0.284 µM
same,IC50,second compound 0.1 µM,0.235 µM
same,IC50,second compound 0.316 µM,0.244 µM
same,IC50,second compound 1 µM,0.225 µM
same,IC50,second compound 3.16 µM,0.3 µM
same,IC50,second compound 10 µM,0.304 µM
same,"viability, T/C",[1],82.1%
same,"viability, T/C",[2],92.9%
same,"viability, T/C",[3],43.7%
same,"viability, T/C",[4],24.3%
same,"viability, T/C",[5],3.71%
same,"viability, T/C",[6],9.4%
same,"viability, T/C",[7],79%
same,"viability, T/C",[8],86.8%
same,"viability, T/C",[9],38.5%
same,"viability, T/C",[10],27%
same,"viability, T/C",[11],3.59%
same,"viability, T/C",[12],13.3%
same,"viability, T/C",[13],66.8%
same,"viability, T/C",[14],97.2%
same,"viability, T/C",[15],40.7%
same,"viability, T/C",[16],26.1%
same,"viability, T/C",[17],2.4%
same,"viability, T/C",[18],10.4%
same,"viability, T/C",[19],69.7%
same,"viability, T/C",[20],96.7%
same,"viability, T/C",[21],35.9%
same,"viability, T/C",[22],27.5%
same,"viability, T/C",[23],2.69%
same,"viability, T/C",[24],12.1%
same,"viability, T/C",[25],73%
same,"viability, T/C",[26],88.1%
same,"viability, T/C",[27],41.5%
same,"viability, T/C",[28],28%
same,"viability, T/C",[29],3.59%
same,"viability, T/C",[30],10.6%
same,"viability, T/C",[31],76%
same,"viability, T/C",[32],95.2%
same,"viability, T/C",[33],48.8%
same,"viability, T/C",[34],21.6%
same,"viability, T/C",[35],6.39%
same,"viability, T/C",[36],13.2%
